This is an account of results in ChEMBL document CHEMBL2380213, “Conformational restriction approach to BACE1 inhibitors II: SAR study of the isocytosine derivatives fixed with a cis-cyclopropane ring” (Bioorg Med Chem Lett, 2013).

Each structure is given as a SMILES string. Where only a bound is given, the exact number is not on record here.

For this test, the target named is Beta-secretase 1 (Homo sapiens, UniProt P56817). Briefly: Inhibition of human recombinant BACE1 expressed in Escherichia coli BL21(DE3) using Biotin-XSEVNLDAEFRHDSGC-Eu as substrate after 3 hrs by HTRF assay.
Sequence of Beta-secretase 1 (P56817 whole entry): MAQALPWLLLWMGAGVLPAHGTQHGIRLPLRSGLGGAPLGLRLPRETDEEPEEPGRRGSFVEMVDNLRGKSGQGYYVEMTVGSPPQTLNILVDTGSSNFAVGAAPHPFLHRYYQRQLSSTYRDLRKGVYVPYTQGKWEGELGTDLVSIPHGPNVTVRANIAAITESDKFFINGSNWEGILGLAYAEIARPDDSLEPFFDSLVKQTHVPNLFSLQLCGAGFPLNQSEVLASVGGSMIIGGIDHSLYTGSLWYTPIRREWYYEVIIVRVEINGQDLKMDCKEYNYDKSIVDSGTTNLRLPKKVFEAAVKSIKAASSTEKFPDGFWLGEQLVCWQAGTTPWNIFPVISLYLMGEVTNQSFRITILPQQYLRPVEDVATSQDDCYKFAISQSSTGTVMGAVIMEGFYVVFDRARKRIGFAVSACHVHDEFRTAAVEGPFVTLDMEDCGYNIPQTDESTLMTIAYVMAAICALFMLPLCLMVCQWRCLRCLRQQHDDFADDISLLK
On to `Cc1cccc(-c2cccc([C@@H]3C[C@@H]3c3cc(=O)n(C)c(N)n3)c2)c1`, for which the IC50 turned out to be 74.9 µM. Turning to `CCOc1cccc(-c2cccc([C@@H]3C[C@@H]3c3cc(=O)n(C)c(N)n3)c2)c1`, the IC50 is 39.4 µM. For the compound `Cc1ccccc1CCc1cccc([C@@H]2C[C@@H]2c2cc(=O)n(C)c(N)n2)c1`, the IC50 was found to be 120 µM. Next, `COc1cncc(-c2cccc([C@@H]3C[C@@H]3c3cc(=O)n(C)c(N)n3)c2)n1`: 84.9 µM; `Cn1c(N)nc([C@H]2C[C@H]2c2cccc(/C=C/c3ccccc3)c2)cc1=O`: over 200 µM; `CSc1cccc(-c2cccc([C@@H]3C[C@@H]3c3cc(=O)n(C)c(N)n3)c2)c1`: 47.5 µM. For `Cn1c(N)nc([C@H]2C[C@H]2c2cccc(Cc3ccccc3)c2)cc1=O` the value was over 200 µM; for `Cn1c(N)nc([C@H]2C[C@H]2c2cccc(C#Cc3ccccc3)c2)cc1=O`, over 200 µM; for `COc1ccc(-c2cccc([C@@H]3C[C@@H]3c3cc(=O)n(C)c(N)n3)c2)cc1`, 30.8 µM. For `Cn1c(N)nc([C@H]2C[C@H]2c2cccc(-c3cccc(F)c3)c2)cc1=O` the value was 72.4 µM. As for `Cc1ccc(CCc2cccc([C@@H]3C[C@@H]3c3cc(=O)n(C)c(N)n3)c2)cc1`, the IC50 was over 200 µM. Next, `Cn1c(N)nc([C@H]2C[C@H]2c2cccc(CCCc3ccccc3)c2)cc1=O`: over 200 µM; `Cc1cccc(CCc2cccc([C@@H]3C[C@@H]3c3cc(=O)n(C)c(N)n3)c2)c1`: over 200 µM. Next, `Cn1c(N)nc([C@H]2C[C@H]2c2cccc(-c3cccc(N)c3)c2)cc1=O`: over 200 µM; `CN(C)c1cccc(-c2cccc([C@@H]3C[C@@H]3c3cc(=O)n(C)c(N)n3)c2)c1`: over 200 µM; `Cn1c(N)nc([C@H]2C[C@H]2c2cccc(CCc3ccccc3)c2)cc1=O`: 22.2 µM. Next, `COc1cccc(CCc2cccc([C@@H]3C[C@@H]3c3cc(=O)n(C)c(N)n3)c2)c1`: 100 µM; `Cn1c(N)nc(CCc2cccc(CCc3ccccc3)c2)cc1=O`: over 200 µM.
